In PMC3056285 (Bioorganic & medicinal chemistry, 2011):

How the values were obtained:
[1] = In vivo metabolite analysis in rat plasma; parameters: species or system Sprague-Dawley rats; conditions: HPLC radioactivity
[2] = In vivo metabolite analysis in rat brain; parameters: species or system Sprague-Dawley rats; conditions: HPLC radioactivity
[3] = Biodistribution of [^11C]MP-10 in rats; type: in vivo, Sprague-Dawley rats; conditions: male rats, tail vein injection
PDE10A = experiment: MicroPET imaging studies in rhesus monkeys; type: in vivo; conditions: male rhesus monkeys
[4] = 2 min post injection of [^11C]MP-10
[5] = 20 min post injection of [^11C]MP-10
[6] = 40 min post injection of [^11C]MP-10
[7] = 60 min post injection of [^11C]MP-10

With `[11CH3]n1cc(-c2ccncc2)c(-c2ccc(O)cc2)n1` [metabolite #1, 4-(1-[^11C]methyl-4-(pyridin-4-yl)-1H-pyrazol-3-yl)phenol] the “% Peak #1, Plasma” value [1, 4] was 1.23%, the “% Peak #1, Plasma” value [1, 5] was 19.13% and the “% Peak #1, Plasma” value [1, 6] was 35.19%. The “% Peak #1, Plasma” value [1, 7] was 40.72%, the “% Peak #1, Brain Tissue” value [2, 4] was 1.03% and the “% Peak #1, Brain Tissue” value [2, 5] was 3.45%. The “% Peak #1, Brain Tissue” value [2, 6] was 11.47% and the “% Peak #1, Brain Tissue” value [2, 7] was 15.87%.

With `[11CH3]n1cc(-c2ccncc2)c(-c2ccc(OCc3ccc4ccccc4n3)cc2)n1` [[^11C]MP-10, 2-((4-(1-[^11C]methyl-4-(pyridin-4-yl)-1H-pyrazol-3-yl)phenoxy)methyl)-quinoline] the “Biodistribution Blood” value ([3]; 5 min) was 0.123 ± 0.033 ID%/gram, the “Biodistribution Cerebellum” value ([3]; 5 min) was 0.133 ± 0.023 ID%/gram and the “Biodistribution Cortex” value ([3]; 5 min) was 0.133 ± 0.025 ID%/gram. The “Biodistribution Fat” value ([3]; 5 min) was 0.124 ± 0.059 ID%/gram, the “Biodistribution Heart” value ([3]; 5 min) was 0.264 ± 0.080 ID%/gram and the “Biodistribution Hippocampus” value ([3]; 5 min) was 0.169 ± 0.049 ID%/gram. The “Biodistribution Liver” value ([3]; 5 min) was 2.766 ± 0.350 ID%/gram, the “Biodistribution Lung” value ([3]; 5 min) was 0.317 ± 0.037 ID%/gram and the “Biodistribution Muscle” value ([3]; 5 min) was 0.093 ± 0.021 ID%/gram. The “Biodistribution Striatum” value ([3]; 5 min) was 0.300 ± 0.094 ID%/gram, the “Biodistribution Testes” value ([3]; 5 min) was 0.160 ± 0.048 ID%/gram and the “Biodistribution Total brain” value ([3]; 5 min) was 0.162 ± 0.025 ID%/gram. For the same compound, the “Biodistribution Blood” value ([3]; 30 min) was 0.065 ± 0.016 ID%/gram, the “Biodistribution Cerebellum” value ([3]; 30 min) was 0.036 ± 0.003 ID%/gram and the “Biodistribution Cortex” value ([3]; 30 min) was 0.044 ± 0.009 ID%/gram. The “Biodistribution Fat” value ([3]; 30 min) was 0.075 ± 0.020 ID%/gram, the “Biodistribution Heart” value ([3]; 30 min) was 0.102 ± 0.041 ID%/gram and the “Biodistribution Hippocampus” value ([3]; 30 min) was 0.050 ± 0.010 ID%/gram. For the same compound, the “Biodistribution Kidney” value ([3]; 30 min) was 0.366 ± 0.075 ID%/gram, the “Biodistribution Liver” value ([3]; 30 min) was 3.395 ± 0.448 ID%/gram and the “Biodistribution Lung” value ([3]; 30 min) was 0.155 ± 0.053 ID%/gram. For the same compound, the “Biodistribution Muscle” value ([3]; 30 min) was 0.059 ± 0.010 ID%/gram, the “Biodistribution Striatum” value ([3]; 30 min) was 0.236 ± 0.035 ID%/gram and the “Biodistribution Testes” value ([3]; 30 min) was 0.098 ± 0.006 ID%/gram. For the same compound, the “Biodistribution Total brain” value ([3]; 30 min) was 0.066 ± 0.008 ID%/gram, the “Biodistribution Blood” value ([3]; 60 min) was 0.047 ± 0.012 ID%/gram and the “Biodistribution Cerebellum” value ([3]; 60 min) was 0.035 ± 0.003 ID%/gram. The “Biodistribution Cortex” value ([3]; 60 min) was 0.044 ± 0.014 ID%/gram, the “Biodistribution Fat” value ([3]; 60 min) was 0.100 ± 0.013 ID%/gram and the “Biodistribution Heart” value ([3]; 60 min) was 0.068 ± 0.023 ID%/gram. The “Biodistribution Hippocampus” value ([3]; 60 min) was 0.051 ± 0.009 ID%/gram, the “Biodistribution Kidney” value ([3]; 60 min) was 0.314 ± 0.060 ID%/gram and the “Biodistribution Liver” value ([3]; 60 min) was 3.364 ± 0.613 ID%/gram. The “Biodistribution Lung” value ([3]; 60 min) was 0.090 ± 0.012 ID%/gram, the “Biodistribution Muscle” value ([3]; 60 min) was 0.039 ± 0.011 ID%/gram and the “Biodistribution Striatum” value ([3]; 60 min) was 0.164 ± 0.036 ID%/gram. The “Biodistribution Testes” value ([3]; 60 min) was 0.068 ± 0.021 ID%/gram, the “Biodistribution Total brain” value ([3]; 60 min) was 0.056 ± 0.006 ID%/gram and the “blood brain barrier penetration” value (PDE10A) was “can readily penetrate the blood brain barrier”.
